Laboratory results published in ChEMBL document CHEMBL1201862, “PubChem BioAssay data set” (2004).
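Interpolation was linear, between the two tested concentrations surrounding the appropriate level; five concentrations were tested over 48 hours in 96-well plates. Abbreviation: GI50, concentration required for 50% inhibition of growth.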 Activity calls are given as the source filed them. No stated cut-off is given here; in the data, active = GI50 up to about 1.1 µM and inactive = higher.

Key:
Assay in all cases: NCI-60 cell line screen, 48 h
HOP-62 = tested on: HOP-62
PC-3 = tested on: PC-3
NCI/ADR-RES = tested on: NCI/ADR-RES
A549 = tested on: A549
NCI-H522 = tested on: NCI-H522
U-251 = tested on: U-251
BT-549 = tested on: BT-549
SNB-75 = tested on: SNB-75
A498 = tested on: A498
SK-MEL-2 = tested on: SK-MEL-2
UACC-257 = tested on: UACC-257
Hs-578T = tested on: Hs-578T
SK-OV-3 = tested on: SK-OV-3
Malme-3M = tested on: Malme-3M
TK-10 = tested on: TK-10
T47D = tested on: T47D
M14 = tested on: M14
MDA-MB-435 = tested on: MDA-MB-435
MDA-N = tested on: MDA-N
UACC-62 = tested on: UACC-62

Measured: GI50

CC1(C)CC(=O)c2c(nc(SSc3nc4c(c(-c5ccccc5)c3C#N)C(=O)CC(C)(C)C4)c(C#N)c2-c2ccccc2)C1
inactive: HOP-62 > 10 µM | PC-3 > 10 µM | NCI/ADR-RES > 10 µM | A549 > 10 µM | NCI-H522 > 10 µM | U-251 > 10 µM | BT-549 > 10 µM | SNB-75 > 10 µM | A498 > 10 µM | SK-MEL-2 > 10 µM | UACC-257 > 10 µM | Hs-578T > 10 µM | SK-OV-3 > 10 µM | Malme-3M > 10 µM | TK-10 > 10 µM | T47D > 10 µM | M14 > 10 µM

O=[N+]([O-])c1ccc2[nH]c(=S)[nH]c(=S)c2c1
inactive: HOP-62 > 100 µM | PC-3 > 100 µM | NCI/ADR-RES > 100 µM | MDA-MB-435 > 100 µM | A549 > 100 µM | NCI-H522 > 100 µM | U-251 > 100 µM | SNB-75 20.7 µM | A498 > 100 µM | MDA-N > 100 µM | UACC-62 > 100 µM | SK-MEL-2 > 100 µM | UACC-257 > 100 µM | Hs-578T > 100 µM | SK-OV-3 > 100 µM | Malme-3M > 100 µM | TK-10 > 100 µM | T47D > 100 µM | M14 > 100 µM

O=C1/C(=C/c2ccccc2O)N=C(c2ccccc2)N1C1Nc2cc3c(cc2S1)NC(N1C(=O)/C(=C/c2ccccc2O)N=C1c1ccccc1)S3 (stereo not given)
inactive: HOP-62 31.2 µM | PC-3 34.4 µM | NCI/ADR-RES 10.5 µM | MDA-MB-435 14.8 µM | NCI-H522 35.2 µM | U-251 29.6 µM | A498 20 µM | MDA-N 14 µM | SK-MEL-2 35.2 µM | UACC-257 66.8 µM | Hs-578T 30.5 µM | SK-OV-3 35.8 µM | TK-10 25.4 µM | T47D 8.05 µM | M14 38.3 µM

O=C(N(C1=CCCC1)N(c1ccccc1)c1ccccc1)C(F)(F)F
inactive: HOP-62 25.5 µM | PC-3 30.3 µM | NCI/ADR-RES 28.8 µM | MDA-MB-435 21.1 µM | A549 26.4 µM | NCI-H522 10.4 µM | U-251 19.8 µM | BT-549 29.9 µM | SNB-75 20 µM | A498 51.8 µM | MDA-N 23.9 µM | UACC-62 25.8 µM | SK-MEL-2 17.1 µM | UACC-257 21.6 µM | SK-OV-3 40.1 µM | Malme-3M 3.76 µM | TK-10 39.9 µM | T47D 17 µM | M14 26.2 µM

CN(CCCNC(=O)c1nn(-c2ccc(Cl)cc2Cl)c2c1ccc1ccccc12)CCCNC(=O)c1nn(-c2ccc(Cl)cc2Cl)c2c1ccc1ccccc12
inactive: HOP-62 1.77 µM | PC-3 1.68 µM | NCI/ADR-RES 1.59 µM | MDA-MB-435 1.71 µM | A549 1.63 µM | NCI-H522 1.46 µM | U-251 1.69 µM | SNB-75 1.75 µM | A498 1.43 µM | MDA-N 1.73 µM | UACC-62 1.65 µM | SK-MEL-2 1.65 µM | UACC-257 1.78 µM | Hs-578T 1.44 µM | SK-OV-3 2 µM | Malme-3M 1.95 µM | TK-10 1.89 µM | T47D 1.81 µM | M14 1.6 µM

Cc1cc2[nH]c3c(C#N)c(-c4ccccc4)c(CN4CCOCC4)c(=O)n3c2cc1C
inactive: HOP-62 > 100 µM | PC-3 > 100 µM | NCI/ADR-RES > 100 µM | MDA-MB-435 > 100 µM | A549 > 100 µM | NCI-H522 > 100 µM | U-251 > 100 µM | BT-549 > 100 µM | SNB-75 40.7 µM | A498 > 100 µM | MDA-N > 100 µM | SK-MEL-2 > 100 µM | UACC-257 > 100 µM | SK-OV-3 > 100 µM | Malme-3M > 100 µM | TK-10 > 100 µM | T47D > 100 µM | M14 > 100 µM

Cc1nc2c3c(ncn2n1)Oc1c(c(-c2ccccc2)nn1-c1ccccc1)C3c1ccc(Cl)cc1 (stereo not given)
inactive: HOP-62 75.7 µM | PC-3 > 100 µM | NCI/ADR-RES > 100 µM | MDA-MB-435 > 100 µM | A549 > 100 µM | U-251 53.6 µM | SNB-75 39.6 µM | A498 > 100 µM | MDA-N > 100 µM | UACC-62 53.6 µM | SK-MEL-2 > 100 µM | UACC-257 > 100 µM | Hs-578T 23.2 µM | SK-OV-3 43.3 µM | Malme-3M 46.1 µM | TK-10 39.4 µM | T47D > 100 µM | M14 79.3 µM

COC1OC(Cn2cc([N+](=O)[O-])nc2C)C(O)C(O)C1O (stereo not given)
inactive: HOP-62 > 100 µM | PC-3 > 100 µM | NCI/ADR-RES > 100 µM | MDA-MB-435 > 100 µM | A549 > 100 µM | NCI-H522 > 100 µM | U-251 > 100 µM | A498 > 100 µM | MDA-N > 100 µM | UACC-62 > 100 µM | SK-MEL-2 > 100 µM | UACC-257 > 100 µM | Hs-578T > 100 µM | SK-OV-3 > 100 µM | Malme-3M 5.93 µM | T47D > 100 µM | M14 > 100 µM

C=C(Br)C(Cl)(CBr)CCC(Br)C(C)(C)Cl (stereo not given)
inactive: HOP-62 > 10 µM | PC-3 > 10 µM | NCI/ADR-RES > 10 µM | MDA-MB-435 > 10 µM | A549 > 10 µM | NCI-H522 > 10 µM | U-251 > 10 µM | BT-549 > 10 µM | SNB-75 > 10 µM | A498 > 10 µM | MDA-N > 10 µM | UACC-62 > 10 µM | SK-MEL-2 > 10 µM | SK-OV-3 > 10 µM | TK-10 > 10 µM | T47D > 10 µM | M14 > 10 µM

CCOC(CN(C)C(=O)Nc1cccc2ccccc12)OCC
inactive: HOP-62 > 10 µM | PC-3 > 10 µM | NCI/ADR-RES > 10 µM | MDA-MB-435 > 10 µM | A549 > 10 µM | NCI-H522 > 10 µM | U-251 > 10 µM | SNB-75 > 10 µM | A498 > 10 µM | MDA-N > 10 µM | UACC-62 > 10 µM | SK-MEL-2 > 10 µM | UACC-257 > 10 µM | Hs-578T > 10 µM | SK-OV-3 > 10 µM | Malme-3M > 10 µM | TK-10 > 10 µM | T47D > 10 µM | M14 > 10 µM

COC(=O)n1c(C)c(C=O)c2ccc(OC)cc21
inactive: HOP-62 16.4 µM | PC-3 31.9 µM | NCI/ADR-RES 49.4 µM | MDA-MB-435 21.1 µM | A549 43.7 µM | NCI-H522 38.5 µM | BT-549 26.7 µM | SNB-75 31.3 µM | MDA-N > 10 µM | UACC-62 21 µM | SK-MEL-2 33.2 µM | UACC-257 45.2 µM | SK-OV-3 33.8 µM | Malme-3M 99.8 µM | TK-10 22.8 µM | T47D 72.3 µM | M14 36.3 µM
